Laboratory results taken from publication PMC4604124, “In Vitro Characterization of the Pharmacological Properties of the Anti-Cancer Chelator, Bp4eT, and Its Phase I Metabolites” (PLoS ONE, 2015).
Several values for one entry are separate records, joined by “and”; a condition that tells them apart may be missing. Equal values may be shown once. Read-outs that look alike come from different tables or passages of the source.

Assays:
[1] = system: MCF-7 human breast adenocarcinoma cells; test: MTT cytotoxicity assay, MCF-7 cells; assay type: cell-based; details: for IC50: MTT, read-out: IC50
Experimental: (§1) For cytotoxicity experiments, cancer cells were seeded at a density of 5,000 (MCF-7), 10,000 (HL-60) or 2,000 cells/well (HCT116 and A549) in 96-well plates (TPP) for 24 h/37°C prior to the addition of examined agents. The non-cancerous cells, 3T3 and H9c2 cells, were cultured for 24 h/37°C in 96-well plates at a density of 10,000 cells/well, the medium was then changed to serum- and pyruvate-free DMEM (Sigma-Aldrich) and incubated with the cells for another 24 h/37°C. The cytotoxic effects of Bp4eT and its metabolites were studied at different concentrations after a 72 h/37°C incubation. In order to aid the dissolution of the lipophilic ligands, 0.1% dimethyl sulfoxide (v/v) (DMSO; Sigma-Aldrich) was present in the culture medium of all groups. At this concentration, DMSO had no effect on cellular proliferation or viability.
(§2) The viability of cells were determined using an MTT assay (Sigma-Aldrich) according to previously established methods. The optical density of soluble MTT was measured at λ = 570 nm, subtracting the λ = 690 nm background using a Tecan Infinite 200M plate reader (Tecan Group, Männedorf, Switzerland). The viability or proliferation of experimental groups was expressed as a percentage of the untreated controls (100%).
(§3) SigmaStat for Windows 3.5 (Systat Software, San Jose, CA, USA) statistical software package was utilized to analyze results. The data are expressed as the mean ± SD of a given number of experiments. Statistical significance was determined using a one-way ANOVA with a Bonferroni post-hoc test or Student’s t-test. The results were considered to be statistically significant when p < 0.05. The IC50 values were calculated using CalcuSyn 2.0 software (Biosoft, Cambridge, UK). Cell cycle analysis was evaluated using MultiCycle AV Software (Phoenix Flow Systems, San Diego, CA, USA).

[2] = system: A549 human lung adenocarcinoma cells; test: MTT cytotoxicity assay, A549 cells; assay type: cell-based; details: for IC50: MTT
Experimental: as §1, §2, §3

[3] = system: MCF-7 cells prelabeled with 59Fe2-transferrin; test: Mobilization (efflux) of cellular 59Fe; assay type: cell-based, human; design: Efflux 59Fe / Efflux 59Fe, Ave: unit not given here
From the text: (§4) Human transferrin (Sigma) was labeled with ^56Fe or ^59Fe (PerkinElmer, Massachusetts, USA) to produce ^56Fe2-transferrin or ^59Fe2-transferrin (^59Fe2-Tf), respectively, with a final specific activity of 500 pCi/pmol Fe, as previously described. Unbound ^59Fe was removed by exhaustive vacuum dialysis against a large excess of 0.15 M NaCl buffered to pH 7.4 with 1.4% NaHCO3 by standard methods.
To examine the ability of studied compounds to mobilize cellular ^59Fe from MCF-7 cells, iron efflux experiments were performed using established techniques. In brief, after pre-labeling confluent MCF-7 cells on 6-well plates with 0.75 μM ^59Fe2-Tf for 3 h/37°C, the cells were washed four times with ice-cold PBS and then subsequently incubated with 25 μM of Bp4eT or its metabolites for 3 h/37°C. The overlying medium containing released ^59Fe was then decanted from the cells. Radioactivity was measured in both the cells and the supernatant using a γ-scintillation counter (Wallac Wizard 3, Turku, Finland).

[4] = system: MCF-7 cells; test: Cellular 59Fe uptake from 59Fe2-transferrin; assay type: cell-based, human; design: key to Uptake 59Fe, Ave / Uptake 59Fe: % of internalized 59Fe in untreated control cells; details: Control Ave = 100
From the text: as §4
The ability of the chelators to prevent cellular ^59Fe uptake from ^59Fe2-transferrin was examined using standard techniques. In brief, confluent MCF-7 cells in 6-well plates were incubated with 0.75 μM ^59Fe2-Tf for 3 h/37°C in the presence of Bp4eT or its metabolites (25 μM). The cells were then washed four times with ice-cold PBS and the level of internalized ^59Fe was determined by incubating the cell monolayer for 30 min/4°C with the general protease, Pronase (1 mg/mL; Sigma-Aldrich). The cells were then removed from the monolayer with a plastic spatula on ice and centrifuged for 1 min/12,000 x g/4°C. The supernatant represents membrane-bound, Pronase-sensitive ^59Fe that was released by the protease, while the Pronase-insensitive fraction represents internalized ^59Fe. The amount of internalized ^59Fe was expressed as a percentage of ^59Fe internalized by control (untreated) cells.

[5] = single replicate (three per date)

In the case of `CCNC(=O)NN=C(c1ccccc1)c1ccccn1` [Z-Bp4eS, 2-benzoylpyridine 4-ethylsemicarbazone], the “Therapeutic index, IC50 non-cancerous cells / IC50 neoplastic cells” value ([1]; 3T3/MCF-7) is reported as over 5.1, the “Therapeutic index, IC50 non-cancerous cells / IC50 neoplastic cells” value ([1]; H9c2/MCF-7) is reported as 1.7 and the IC50 ([1]; MCF-7, 72 h/37°C, mean ± SD, n ≥ 4) is reported as 198 ± 20.9 µM. For the same compound, the IC50 ([1]; MCF-7, 5 000 b/j, průměr (mean)) was 198 µM, the IC50 ([1]; MCF-7, 5 000 b/j, single experiment (by date)) was 185 µM and 224 µM and 177 µM and 205 µM and the “MTT, value relative to 0 μM = 100” value ([1]; MCF-7, 5 000 b/j, koncentrace 1 μM, průměr (mean)) was 93.54. For the same compound, the “MTT, value relative to 0 μM = 100” value ([1]; MCF-7, 5 000 b/j, koncentrace 1 μM, single experiment (by date)) was 102.478 and 93.2821 and 90.3792 and 88.0305, the “MTT, value relative to 0 μM = 100” value ([1]; MCF-7, 5 000 b/j, koncentrace 3 μM, průměr (mean)) was 89.98 and the “MTT, value relative to 0 μM = 100” value ([1]; MCF-7, 5 000 b/j, koncentrace 3 μM, single experiment (by date)) was 104.08 and 86.4853 and 85.3702 and 83.9685. The “MTT, value relative to 0 μM = 100” value ([1]; MCF-7, 5 000 b/j, koncentrace 10 μM, průměr (mean)) was 90.26, the “MTT, value relative to 0 μM = 100” value ([1]; MCF-7, 5 000 b/j, koncentrace 10 μM, single experiment (by date)) was 95.2561 and 95.1363 and 88.6166 and 84.693 and 87.5852 and the “MTT, value relative to 0 μM = 100” value ([1]; MCF-7, 5 000 b/j, koncentrace 30 μM, průměr (mean)) was 93.09. The “MTT, value relative to 0 μM = 100” value ([1]; MCF-7, 5 000 b/j, koncentrace 30 μM, single experiment (by date)) was 93.8264 and 93.1628 and 90.8333 and 94.5401, the “MTT, value relative to 0 μM = 100” value ([1]; MCF-7, 5 000 b/j, koncentrace 100 μM, průměr (mean)) was 68.42 and the “MTT, value relative to 0 μM = 100” value ([1]; MCF-7, 5 000 b/j, koncentrace 100 μM, single experiment (by date)) was 56.52 and 67.9071 and 73.7709 and 75.4946. For the same compound, the “MTT, value relative to 0 μM = 100” value ([1]; MCF-7, 5 000 b/j, koncentrace 300 μM, průměr (mean)) was 29.85, the “MTT, value relative to 0 μM = 100” value ([1]; MCF-7, 5 000 b/j, koncentrace 300 μM, single experiment (by date)) was 23.6355 and 38.2595 and 25.5292 and 31.9956 and the “MTT, value relative to 0 μM = 100” value ([1]; MCF-7, 5 000 b/j, koncentrace 1000 μM, průměr (mean)) was 13.67. The “MTT, value relative to 0 μM = 100” value ([1]; MCF-7, 5 000 b/j, koncentrace 1000 μM, single experiment (by date)) was 18.442 and 16.1441 and 10.4709 and 9.64, the “Therapeutic index, IC50 non-cancerous cells / IC50 neoplastic cells” value ([2]; 3T3/A549) was over 1.9 and the IC50 ([2]; A549, 72 h/37°C, mean ± SD, n ≥ 4) was 536 ± 147 µM. For the same compound, the “MTT, relative to control (0 = 100)” value ([2]; A549, 2 000 b/j, 1 μM, průměr (mean), sheet Z-Bp4eS) was 94.73, the “MTT, relative to control (0 = 100)” value ([2]; A549, 2 000 b/j, 1 μM, single experiment (date), sheet Z-Bp4eS) was 96.1035 and 96.1124 and 90.1392 and 98.3089 and 94.9198 and 92.7894 and the “MTT, relative to control (0 = 100)” value ([2]; A549, 2 000 b/j, 3 μM, průměr (mean), sheet Z-Bp4eS) was 94.38. The “MTT, relative to control (0 = 100)” value ([2]; A549, 2 000 b/j, 3 μM, single experiment (date), sheet Z-Bp4eS) was 93.9771 and 96.8848 and 87.0494 and 97.8403 and 95.4397 and 95.0776, the “MTT, relative to control (0 = 100)” value ([2]; A549, 2 000 b/j, 10 μM, průměr (mean), sheet Z-Bp4eS) was 94.55 and the “MTT, relative to control (0 = 100)” value ([2]; A549, 2 000 b/j, 10 μM, single experiment (date), sheet Z-Bp4eS) was 94.0202 and 95.9602 and 87.4767 and 100.017 and 95.1483 and 94.6861. The “MTT, relative to control (0 = 100)” value ([2]; A549, 2 000 b/j, 30 μM, průměr (mean), sheet Z-Bp4eS) was 91.68, the “MTT, relative to control (0 = 100)” value ([2]; A549, 2 000 b/j, 30 μM, single experiment (date), sheet Z-Bp4eS) was 90.8876 and 93.251 and 83.1786 and 91.8017 and 95.6624 and 95.2834 and the “MTT, relative to control (0 = 100)” value ([2]; A549, 2 000 b/j, 100 μM, průměr (mean), sheet Z-Bp4eS) was 84.34. The “MTT, relative to control (0 = 100)” value ([2]; A549, 2 000 b/j, 100 μM, single experiment (date), sheet Z-Bp4eS) was 76.9185 and 86.3352 and 79.6865 and 86.589 and 88.5447 and 87.9645, the “MTT, relative to control (0 = 100)” value ([2]; A549, 2 000 b/j, 300 μM, průměr (mean), sheet Z-Bp4eS) was 74.88 and the “MTT, relative to control (0 = 100)” value ([2]; A549, 2 000 b/j, 300 μM, single experiment (date), sheet Z-Bp4eS) was 67.4475 and 78.3776 and 76.2041 and 77.4903. The “MTT, relative to control (0 = 100)” value ([2]; A549, 2 000 b/j, 1000 μM, průměr (mean), sheet Z-Bp4eS) was 26.69, the “MTT, relative to control (0 = 100)” value ([2]; A549, 2 000 b/j, 1000 μM, single experiment (date), sheet Z-Bp4eS) was 18.2318 and 35.0023 and 34.1521 and 19.3887 and the IC50 ([2]; A549, 2 000 b/j, single experiment (date), sheet Z-Bp4eS) was 676 µM and 639 µM and 464 µM. For the same compound, the “Therapeutic index, IC50 non-cancerous cells / IC50 neoplastic cells” value ([2]; H9c2/A549) was 0.6, the IC50 ([2]; Homo sapiens, A549, A549, 2 000 b/j, průměr (mean), sheet Z-Bp4eS) was 536 µM and the IC50 ([2]; Homo sapiens, A549, A549, 2 000 b/j, single experiment (date), sheet Z-Bp4eS) was 364 µM. The “Efflux 59Fe, Ave” value ([3]; average of all replicates) was 3.856, the “Efflux 59Fe” value [3, 5] was 5.4747 and 4.265 and 4.3539 and 3.0981 and 3.2068 and 3.9182 and 3.1551 and 3.9954 and 3.2369 and the “Uptake 59Fe, Ave” value ([4]; average of all replicates) was 99.1556. The “Uptake 59Fe” value [4, 5] was 95.0144 and 99.433 and 101.961 and 99.9491 and 96.6715 and 101.111 and 99.7324 and 96.809 and 101.719.
